# Test results published in PubChem BioAssay (NCI).
#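 Cells were grown in 96-well plates and exposed to each compound for 48 hours at five concentrations; endpoints were interpolated linearly between bracketing concentrations, or set to the highest concentration if not reached. At the GI50, growth is halved. The concentration for full growth arrest is given as TGI.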
# Tests used:
# Assay in all cases: NCI tumour cell line growth inhibition, 48 h
# CCRF-CEM leukemia = test system: CCRF-CEM leukemia
# RXF 393 renal = test system: RXF 393 renal
# KM12 colon = test system: KM12 colon
# SK-MEL-5 melanoma = test system: SK-MEL-5 melanoma
# MOLT-4 leukemia = test system: MOLT-4 leukemia
# A498 renal = test system: A498 renal
# CAKI-1 renal = test system: CAKI-1 renal
# NCI-H23 lung = test system: NCI-H23 lung
# NCI/ADR-RES ovarian = test system: NCI/ADR-RES ovarian
# LOX IMVI melanoma = test system: LOX IMVI melanoma
# SW-620 colon = test system: SW-620 colon
# COLO 205 colon = test system: COLO 205 colon
# A549 NSCLC = test system: A549 NSCLC
# SK-MEL-28 melanoma = test system: SK-MEL-28 melanoma
# SK-MEL-2 melanoma = test system: SK-MEL-2 melanoma
# SNB-75 CNS = test system: SNB-75 CNS
# BT-549 breast = test system: BT-549 breast
# MDA-MB-468 breast = test system: MDA-MB-468 breast
# 786-0 renal = test system: 786-0 renal
# EKVX NSCLC = test system: EKVX NSCLC
# SF-295 CNS = test system: SF-295 CNS
# HS 578T breast = test system: HS 578T breast
# ACHN renal = test system: ACHN renal
# K-562 leukemia = test system: K-562 leukemia
# M14 melanoma = test system: M14 melanoma
# UACC-257 melanoma = test system: UACC-257 melanoma
# UACC-62 melanoma = test system: UACC-62 melanoma
# HT29 colon = test system: HT29 colon
# PC-3 prostate = test system: PC-3 prostate
# DU-145 prostate = test system: DU-145 prostate
# HL-60(TB) leukemia = test system: HL-60(TB) leukemia
# OVCAR-4 ovarian = test system: OVCAR-4 ovarian
# MDA-MB-231 breast = test system: MDA-MB-231 breast
# HOP-62 NSCLC = test system: HOP-62 NSCLC
# TK-10 renal = test system: TK-10 renal
# SN12C renal = test system: SN12C renal
# RPMI-8226 leukemia = test system: RPMI-8226 leukemia
# OVCAR-8 ovarian = test system: OVCAR-8 ovarian
# NCI-H522 lung = test system: NCI-H522 lung
# T-47D breast = test system: T-47D breast
# SF-539 CNS = test system: SF-539 CNS
# UO-31 renal = test system: UO-31 renal
# SNB-19 CNS = test system: SNB-19 CNS
# HCC-2998 colon = test system: HCC-2998 colon
# NCI-H226 lung = test system: NCI-H226 lung
# OVCAR-3 ovarian = test system: OVCAR-3 ovarian
# SR leukemia = test system: SR leukemia
# U251 CNS = test system: U251 CNS
# OVCAR-5 ovarian = test system: OVCAR-5 ovarian
# HOP-92 NSCLC = test system: HOP-92 NSCLC
# HCT-15 colon = test system: HCT-15 colon
# NCI-H460 lung = test system: NCI-H460 lung
# SF-268 CNS = test system: SF-268 CNS
# MALME-3M melanoma = test system: MALME-3M melanoma
# HCT-116 colon = test system: HCT-116 colon
# IGROV1 ovarian = test system: IGROV1 ovarian
# MDA-MB-435 = test system: MDA-MB-435
# MCF7 breast = test system: MCF7 breast
# SK-OV-3 ovarian = test system: SK-OV-3 ovarian
compound,measurement,setting,value
O=C(Nc1ccc(Cl)c(C(F)(F)F)c1)c1cncc(C#Cc2cnc3ccc(N4CCOCC4)nn23)c1,GI50,CCRF-CEM leukemia,2.58 µM
same,TGI,CCRF-CEM leukemia,> 81 µM
same,GI50,RXF 393 renal,0.818 µM
same,TGI,RXF 393 renal,2.87 µM
same,GI50,KM12 colon,0.0081 µM
same,TGI,KM12 colon,46.4 µM
same,GI50,SK-MEL-5 melanoma,2.07 µM
same,TGI,SK-MEL-5 melanoma,7.78 µM
same,GI50,MOLT-4 leukemia,1.59 µM
same,TGI,MOLT-4 leukemia,4.77 µM
same,GI50,A498 renal,1.98 µM
same,TGI,A498 renal,6.82 µM
same,GI50,CAKI-1 renal,2.07 µM
same,TGI,CAKI-1 renal,11.1 µM
same,GI50,NCI-H23 lung,0.842 µM
same,TGI,NCI-H23 lung,5.33 µM
same,GI50,NCI/ADR-RES ovarian,2.45 µM
same,TGI,NCI/ADR-RES ovarian,15 µM
same,GI50,LOX IMVI melanoma,0.812 µM
same,TGI,LOX IMVI melanoma,4.35 µM
same,GI50,SW-620 colon,1.65 µM
same,TGI,SW-620 colon,> 81 µM
same,GI50,COLO 205 colon,1.17 µM
same,TGI,COLO 205 colon,9.92 µM
same,GI50,A549 NSCLC,2.15 µM
same,TGI,A549 NSCLC,> 81 µM
same,GI50,SK-MEL-28 melanoma,1.24 µM
same,TGI,SK-MEL-28 melanoma,7.05 µM
same,GI50,SK-MEL-2 melanoma,1.31 µM
same,TGI,SK-MEL-2 melanoma,3.23 µM
same,GI50,SNB-75 CNS,1.15 µM
same,TGI,SNB-75 CNS,4.59 µM
same,GI50,BT-549 breast,1.43 µM
same,TGI,BT-549 breast,6.62 µM
same,GI50,MDA-MB-468 breast,2.54 µM
same,TGI,MDA-MB-468 breast,14.2 µM
same,GI50,786-0 renal,2.68 µM
same,TGI,786-0 renal,11.8 µM
same,GI50,EKVX NSCLC,2.12 µM
same,TGI,EKVX NSCLC,21.2 µM
same,GI50,SF-295 CNS,2.65 µM
same,TGI,SF-295 CNS,33.9 µM
same,GI50,HS 578T breast,0.809 µM
same,TGI,HS 578T breast,4.15 µM
same,GI50,ACHN renal,1.54 µM
same,TGI,ACHN renal,10.3 µM
same,GI50,K-562 leukemia,0.728 µM
same,TGI,K-562 leukemia,> 81 µM
same,GI50,M14 melanoma,0.717 µM
same,TGI,M14 melanoma,3.01 µM
same,GI50,UACC-257 melanoma,2.12 µM
same,TGI,UACC-257 melanoma,21.4 µM
same,GI50,UACC-62 melanoma,0.785 µM
same,TGI,UACC-62 melanoma,3.63 µM
same,GI50,HT29 colon,1 µM
same,TGI,HT29 colon,11.1 µM
same,GI50,PC-3 prostate,2.51 µM
same,TGI,PC-3 prostate,24.4 µM
same,GI50,DU-145 prostate,2.86 µM
same,TGI,DU-145 prostate,> 81 µM
same,GI50,HL-60(TB) leukemia,0.256 µM
same,TGI,HL-60(TB) leukemia,3.87 µM
same,GI50,OVCAR-4 ovarian,3.8 µM
same,TGI,OVCAR-4 ovarian,> 81 µM
same,GI50,MDA-MB-231 breast,0.321 µM
same,TGI,MDA-MB-231 breast,3.1 µM
same,GI50,HOP-62 NSCLC,0.912 µM
same,TGI,HOP-62 NSCLC,9.9 µM
same,GI50,TK-10 renal,2.06 µM
same,TGI,TK-10 renal,30.9 µM
same,GI50,SN12C renal,0.749 µM
same,TGI,SN12C renal,> 81 µM
same,GI50,RPMI-8226 leukemia,2.42 µM
same,TGI,RPMI-8226 leukemia,> 81 µM
same,GI50,OVCAR-8 ovarian,2.5 µM
same,TGI,OVCAR-8 ovarian,19.4 µM
same,GI50,NCI-H522 lung,1.6 µM
same,TGI,NCI-H522 lung,7.49 µM
same,GI50,T-47D breast,1.89 µM
same,TGI,T-47D breast,17.4 µM
same,GI50,SF-539 CNS,0.16 µM
same,TGI,SF-539 CNS,1.64 µM
same,GI50,UO-31 renal,0.562 µM
same,TGI,UO-31 renal,6.24 µM
same,GI50,SNB-19 CNS,2.62 µM
same,TGI,SNB-19 CNS,7.93 µM
same,GI50,HCC-2998 colon,2.06 µM
same,TGI,HCC-2998 colon,15.2 µM
same,GI50,NCI-H226 lung,0.361 µM
same,TGI,NCI-H226 lung,12.5 µM
same,GI50,OVCAR-3 ovarian,3.93 µM
same,TGI,OVCAR-3 ovarian,> 81 µM
same,GI50,SR leukemia,1.41 µM
same,TGI,SR leukemia,> 81 µM
same,GI50,U251 CNS,3.62 µM
same,TGI,U251 CNS,> 81 µM
same,GI50,OVCAR-5 ovarian,0.883 µM
same,TGI,OVCAR-5 ovarian,18.7 µM
same,GI50,HOP-92 NSCLC,0.255 µM
same,TGI,HOP-92 NSCLC,1.55 µM
same,GI50,HCT-15 colon,2.55 µM
same,TGI,HCT-15 colon,> 81 µM
same,GI50,NCI-H460 lung,2.67 µM
same,TGI,NCI-H460 lung,19.1 µM
same,GI50,SF-268 CNS,2.18 µM
same,TGI,SF-268 CNS,31.5 µM
same,GI50,MALME-3M melanoma,0.854 µM
same,TGI,MALME-3M melanoma,5.62 µM
same,GI50,HCT-116 colon,0.356 µM
same,TGI,HCT-116 colon,3.11 µM
same,GI50,IGROV1 ovarian,0.579 µM
same,TGI,IGROV1 ovarian,4.96 µM
same,GI50,MDA-MB-435,1.44 µM
same,TGI,MDA-MB-435,> 81 µM
same,GI50,MCF7 breast,1.91 µM
same,TGI,MCF7 breast,15.4 µM
same,GI50,SK-OV-3 ovarian,2.59 µM
same,TGI,SK-OV-3 ovarian,11.5 µM
